Measurements as given in patent US10179770B2, “Quinolines derivatives as novel anticancer agents” (GENOSCIENCE PHARMA, priority 2013, dated 2019).

Experiments:
Assay in all cases: NCI-60 screen (SRB)
Format in all cases: cell-based
NCI-H322M = NCI-H322M (Non-Small Cell Lung)
Protocol: (§1) The human tumor cell lines of the cancer screening panel are grown in RPMI 1640 medium containing 5% fetal bovine serum and 2 mM L-glutamine. For a typical screening experiment, cells are inoculated into 96 well microtiter plates in 100 μL at plating densities ranging from 5,000 to 40,000 cells/well depending on the doubling time of individual cell lines. After cell inoculation, the microtiter plates are incubated at 37° C., 5% CO2, 95% air and 100% relative humidity for 24 h prior to addition of experimental drugs.
(§2) After 24 h, two plates of each cell line are fixed in situ with TCA, to represent a measurement of the cell population for each cell line at the time of drug addition (Tz). Experimental drug is solubilized in dimethyl sulfoxide at 400-fold the desired final maximum test concentration and stored frozen prior to use. At the time of drug addition, an aliquot of frozen concentrate is thawed and diluted to twice the desired final maximum test concentration with complete medium containing 50 μg/ml gentamicin. Additional four, 10-fold or ½ log serial dilutions are made to provide a total of five drug concentrations plus control. Aliquots of 100 μl of these different drug dilutions are added to the appropriate microtiter wells already containing 100 μl of medium, resulting in the required final drug concentrations.
(§3) Following drug addition, the plates are incubated for an additional 48 h at 37° C., 5% CO2, 95% air, and 100% relative humidity. For adherent cells, the assay is terminated by the addition of cold TCA. Cells are fixed in situ by the gentle addition of 50 μl of cold 50% (w/v) TCA (final concentration, 10% TCA) and incubated for 60 minutes at 4° C. The supernatant is discarded, and the plates are washed five times with tap water and air dried. Sulforhodamine B (SRB) solution (100 μl) at 0.4% (w/v) in 1% acetic acid is added to each well, and plates are incubated for 10 minutes at room temperature. After staining, unbound dye is removed by washing five times with 1% acetic acid and the plates are air dried. Bound stain is subsequently solubilized with 10 mM trizma base, and the absorbance is read on an automated plate reader at a wavelength of 515 nm. For suspension cells, the methodology is the same except that the assay is terminated by fixing settled cells at the bottom of the wells by gently adding 50 μl of 80% TCA (final concentration, 16% TCA). Using the seven absorbance measurements [time zero, (Tz), control growth, (C), and test growth in the presence of drug at the five concentration levels (Ti)], the percentage growth is calculated at each of the drug concentrations levels.
(§4) Percentage growth inhibition is calculated as: [(Ti−Tz)/(C−Tz)]×100 for concentrations for which Ti>/=Tz (1) [(Ti−Tz)/Tz]×100 for concentrations for which Ti<Tz (2)
(§5) Growth inhibition of 50% (GI50) is calculated from [(Ti−Tz)/(C−Tz)]×100=50 (3)
(§6) which is the drug concentration resulting in a 50% reduction in the net protein increase (as measured by SRB staining) in control cells during the drug incubation.
(§7) The drug concentration resulting in total growth inhibition (TGI) is calculated from Ti=Tz (4)
(§8) The LC50 (concentration of drug resulting in a 50% reduction in the measured protein at the end of the drug treatment as compared to that at the beginning) indicating a net loss of cells following treatment is calculated from [(Ti−Tz)/Tz]×100=−50 (5)
(§9) Values are calculated for each of these three parameters if the level of activity is reached; however, if the effect is not reached or is exceeded, the value for that parameter is expressed as greater or less than the maximum or minimum concentration tested.

K-562 = K-562 (Leukemia)
Protocol: as §1, §2, §3, §4, §5, §6, §7, §8, §9

HOP-92 = HOP-92 (Non-Small Cell Lung)
Protocol: as §1, §2, §3, §4, §5, §6, §7, §8, §9

786-0 = 786-0 (Renal)
Protocol: as §1, §2, §3, §4, §5, §6, §7, §8, §9

ACHN = ACHN (Renal)
Protocol: as §1, §2, §3, §4, §5, §6, §7, §8, §9

MDA-MB-435 = MDA-MB-435 (Melanoma)
Protocol: as §1, §2, §3, §4, §5, §6, §7, §8, §9

MOLT-4 = MOLT-4 (Leukemia)
Protocol: as §1, §2, §3, §4, §5, §6, §7, §8, §9

A549/ATCC = A549/ATCC (Non-Small Cell Lung)
Protocol: as §1, §2, §3, §4, §5, §6, §7, §8, §9

T-47D = T-47D (Breast)
Protocol: as §1, §2, §3, §4, §5, §6, §7, §8, §9

MDA-MB-231/ATCC = MDA-MB-231/ATCC (Breast)
Protocol: as §1, §2, §3, §4, §5, §6, §7, §8, §9

KM12 = KM12 (Colon)
Protocol: as §1, §2, §3, §4, §5, §6, §7, §8, §9

HOP-62 = HOP-62 (Non-Small Cell Lung)
Protocol: as §1, §2, §3, §4, §5, §6, §7, §8, §9

HCC-2998 = HCC-2998 (Colon)
Protocol: as §1, §2, §3, §4, §5, §6, §7, §8, §9

SK-MEL-2 = SK-MEL-2 (Melanoma)
Protocol: as §1, §2, §3, §4, §5, §6, §7, §8, §9

OVCAR-8 = OVCAR-8 (Ovarian)
Protocol: as §1, §2, §3, §4, §5, §6, §7, §8, §9

MDA-MB-468 = tested on: MDA-MB-468
Protocol: as §1, §2, §3, §4, §5, §6, §7, §8, §9

[1] = Homo sapiens, read-out: LC50 (the source's name)

With `CC(C)(C)NC1CCN(c2cc(-c3ccc(Cl)cc3)nc3ccccc23)CC1.Cl.Cl` [XII-4, 2-(4-chloro-phenyl)-4-(4-N-tert-butylamino-piperidin-1-yl)quinoline dihydrochloride] the “Growth percent at 10 μM” value (NCI-H322M) was “++ (cell growth 40 > % < 60)”, the “Growth percent at 10 μM” value (K-562) was “× (cell growth 0 < % > −20)” and the “Growth percent at 10 μM” value (HOP-92) was “++ (cell growth 40 > % < 60)”. For the same molecule, the “Growth percent at 10 μM” value (786-0) was “++ (cell growth 40 > % < 60)”, the “Growth percent at 10 μM” value (ACHN) was “+ (cell growth 60 > % < 80)” and the “Growth percent at 10 μM” value (MDA-MB-435) was “++++ (cell growth 0 > % < 20)”. The “Growth percent at 10 μM” value (MOLT-4) was “++ (cell growth 40 > % < 60)”, the “Growth percent at 10 μM” value (A549/ATCC) was “++ (cell growth 40 > % < 60)” and the “Growth percent at 10 μM” value (T-47D) was “++ (cell growth 40 > % < 60)”. The “Growth percent at 10 μM” value (MDA-MB-231/ATCC) was “×× (cell growth −20 < % > −40)”, the “Growth percent at 10 μM” value (KM12) was “+ (cell growth 60 > % < 80)” and the “Growth percent at 10 μM” value (HOP-62) was “+ (cell growth 60 > % < 80)”. The “Growth percent at 10 μM” value (HCC-2998) was “++++ (cell growth 0 > % < 20)”, the “Growth percent at 10 μM” value (SK-MEL-2) was “− (cell growth % > 80)” and the “Growth percent at 10 μM” value (OVCAR-8) was “− (cell growth % > 80)”. For the same molecule, the “Growth percent at 10 μM” value (MDA-MB-468; MDA-MB-468 (Breast)) was “×× (cell growth −20 < % > −40)”.
`CCN(CC)C1CCN(C(C)c2cc(-c3ccccc3)nc3ccccc23)CC1.Cl.Cl` (centres unmarked) [XIX-3, 2-phenyl-4-{1-[4-(N,N-diethylamino)piperidin-1-yl]-eth-1-yl}quinoline dihydrochloride] showed a GI50 (NCI-H322M; Homo sapiens) of 11 µM, a CC50 (NCI-H322M; [1]) of 52 µM and a TGI (NCI-H322M) of 24 µM. For the same molecule, the “Growth percent at 10 μM” value (NCI-H322M) was “+ (cell growth 60 > % < 80)”, the GI50 (K-562; Homo sapiens, K562) was 2 µM and the CC50 (K-562; Homo sapiens, K562, read-out: LC50 (the source's name)) was 15 µM. For the same molecule, the TGI (K-562) was 5 µM, the “Growth percent at 10 μM” value (K-562) was “× (cell growth 0 > % > −20)” and the TGI (HOP-92) was 17 µM. For the same molecule, the “Growth percent at 10 μM” value (HOP-92) was “++ (cell growth 40 > % < 60)”, the GI50 (HOP-92; Homo sapiens) was 3 µM and the CC50 (HOP-92; [1]) was 47 µM. For the same molecule, the TGI (786-0) was 23 µM, the “Growth percent at 10 μM” value (786-0) was “++ (cell growth 40 > % < 60)” and the GI50 (786-0; Homo sapiens) was 8 µM. For the same molecule, the CC50 (786-0; [1]) was 54 µM, the TGI (ACHN) was 23 µM and the “Growth percent at 10 μM” value (ACHN) was “+ (cell growth 60 > % < 80)”. The GI50 (ACHN; Homo sapiens) was 11 µM, the LC50 (concentration causing 50% net cell kill) (ACHN; Homo sapiens) was 50 µM and the GI50 (MDA-MB-435; Homo sapiens) was 2 µM. The CC50 (MDA-MB-435; [1]) was 14 µM, the TGI (MDA-MB-435) was 5 µM and the “Growth percent at 10 μM” value (MDA-MB-435) was “++++ (cell growth % < 20)”. It also gave a GI50 (MOLT-4; Homo sapiens) of 4 µM, a CC50 (MOLT-4; [1]) of 49 µM and a TGI (MOLT-4) of 15 µM. For the same molecule, the “Growth percent at 10 μM” value (MOLT-4) was “++++ (cell growth % < 20)”, the TGI (A549/ATCC) was 31 µM and the “Growth percent at 10 μM” value (A549/ATCC) was “+ (cell growth 60 > % < 80)”. It also gave a GI50 (A549/ATCC; Homo sapiens) of 15 µM, a CC50 (A549/ATCC; [1]) of 63 µM and a GI50 (T-47D; Homo sapiens, T47D) of 5 µM. The CC50 (T-47D; Homo sapiens, T47D, read-out: LC50 (the source's name)) was 52 µM, the TGI (T-47D) was 19 µM and the “Growth percent at 10 μM” value (T-47D) was “++ (cell growth 40 > % < 60)”. For the same molecule, the GI50 (MDA-MB-231/ATCC; Homo sapiens) was 3 µM, the CC50 (MDA-MB-231/ATCC; [1]) was 47 µM and the TGI (MDA-MB-231/ATCC) was 14 µM. For the same molecule, the “Growth percent at 10 μM” value (MDA-MB-231/ATCC) was “++ (cell growth 40 > % < 60)”, the GI50 (KM12; Homo sapiens) was 10 µM and the CC50 (KM12; [1]) was 50 µM. For the same molecule, the TGI (KM12) was 22 µM, the “Growth percent at 10 μM” value (KM12) was “++ (cell growth 40 > % < 60)” and the TGI (HOP-62) was 22 µM. For the same molecule, the “Growth percent at 10 μM” value (HOP-62) was “− (cell growth % > 80)”, the GI50 (HOP-62; Homo sapiens) was 9 µM and the CC50 (HOP-62; [1]) was 52 µM. For the same molecule, the TGI (HCC-2998) was 13 µM, the “Growth percent at 10 μM” value (HCC-2998) was “++ (cell growth 40 > % < 60)” and the GI50 (HCC-2998; Homo sapiens) was 4 µM. For the same molecule, the CC50 (HCC-2998; [1]) was 44 µM, the GI50 (SK-MEL-2; Homo sapiens) was 3 µM and the CC50 (SK-MEL-2; [1]) was 27 µM. The TGI (SK-MEL-2) was 7 µM, the “Growth percent at 10 μM” value (SK-MEL-2) was “++ (cell growth 40 > % < 60)” and the GI50 (OVCAR-8; Homo sapiens) was 14 µM. The CC50 (OVCAR-8; [1]) was 62 µM, the TGI (OVCAR-8) was 30 µM and the “Growth percent at 10 μM” value (OVCAR-8) was “+ (cell growth 60 > % < 80)”. For the same molecule, the CC50 (MDA-MB-468; Homo sapiens, MDA-MB-468, read-out: LC50) was 38 µM, the GI50 (MDA-MB-468; Homo sapiens, MDA-MB-468 (Breast)) was 3 µM and the TGI (MDA-MB-468; MDA-MB-468 (Breast)) was 10 µM. The “Growth percent at 10 μM” value (MDA-MB-468; MDA-MB-468 (Breast)) was “+++ (cell growth 20 > % < 40)”.
